Source: ChEMBL document CHEMBL1157801, “Discovery of an in vitro and in vivo potent resorcylic lactone analog of LL-Z1640-2 as anti-inflammatory lead, II” (Bioorg Med Chem Lett, 2010)
Activity calls are given as the source filed them. The calls are words filed in the database; no cut-off is given here.

Tests used:
U-937 [1] = assay: Inhibition of PALP-fussed TNFalpha production in human U937 cells; type: functional, cell-based
U-937 [2] = assay: Inhibition of PALP-fussed actin production in human U937 cells; type: functional, cell-based
Mus musculus = assay: Antiinflammatory activity in iv dosed mouse assessed as inhibition of LPS-stimulated TNFalpha production; type: functional

SMILES	IC50 (U-937 [1]) [nM]	IC50 (U-937 [2]) [µM]	ED50 (Mus musculus)
C[C@@H]1/C=C\C(=O)[C@@H](O)[C@@H](O)C/C=C/c2cc(OCCn3ccnc3)cc(O)c2C(=O)O[C@H]1C	15	> 10	6.5 mg/kg
CCCCOc1cc(O)c2c(c1)/C=C/C[C@H](O)[C@H](O)C(=O)/C=C\[C@@H](C)[C@H](C)OC2=O	325	> 10	–
COc1ccc(COc2cc(O)c3c(c2)/C=C/C[C@H](O)[C@H](O)C(=O)/C=C\[C@@H](C)[C@H](C)OC3=O)cc1	168	> 10	–
C[C@@H]1/C=C\C(=O)[C@@H](O)[C@@H](O)C/C=C/c2cc(OC(F)F)cc(O)c2C(=O)O[C@H]1C	615	> 10	–
CCCOc1cc(O)c2c(c1)/C=C/C[C@H](O)[C@H](O)C(=O)/C=C\[C@@H](C)[C@H](C)OC2=O	249	> 10	–
C[C@@H]1/C=C\C(=O)[C@@H](O)[C@@H](O)C/C=C/c2cc(OCCNc3ccccn3)cc(O)c2C(=O)O[C@H]1C	113	> 10	–
CC(C)Oc1cc(O)c2c(c1)/C=C/C[C@H](O)[C@H](O)C(=O)/C=C\[C@@H](C)[C@H](C)OC2=O	687	> 10	–
COc1cc(O)c2c(c1)/C=C/C[C@H](O)[C@H](O)C(=O)/C=C\C[C@H](C)OC2=O	–	–	inactive
CC(=O)NCCOc1cc(O)c2c(c1)/C=C/C[C@H](O)[C@H](O)C(=O)/C=C\[C@@H](C)[C@H](C)OC2=O	65	> 10	–
C[C@@H]1/C=C\C(=O)[C@@H](O)[C@@H](O)C/C=C/c2cc(OCc3ccccc3)cc(O)c2C(=O)O[C@H]1C	319	> 10	–
C[C@@H]1/C=C\C(=O)[C@@H](O)[C@@H](O)C/C=C/c2cc(OCc3ccc(Cl)c(Cl)c3)cc(O)c2C(=O)O[C@H]1C	752	> 10	–
COc1cc(O)c2c(c1Br)/C=C/C[C@H](O)[C@H](O)C(=O)/C=C\[C@@H](C)[C@H](C)OC2=O	804	> 10	–
C[C@@H]1/C=C\C(=O)[C@@H](O)[C@@H](O)C/C=C/c2cc(OCCCS(C)(=O)=O)cc(O)c2C(=O)O[C@H]1C	32	> 10	9.8 mg/kg
COc1cc(O)c2c(c1)/C=C/C[C@H](O)[C@H](O)C(=O)/C=C\[C@@H](C)[C@H](C)OC2=O	136	> 10	13.2 mg/kg
CCOc1cc(O)c2c(c1)/C=C/C[C@H](O)[C@H](O)C(=O)/C=C\[C@@H](C)[C@H](C)OC2=O	100	> 10	12 mg/kg

Continued by falling IC50 (U-937 [1]), values first:

IC50 (U-937 [1]) [nM]	IC50 (U-937 [2]) [µM]	SMILES	ED50 (Mus musculus)
1680	> 10	COc1cc(O)c2c(c1)OCC[C@H](O)[C@H](O)C(=O)/C=C\[C@@H](C)[C@H](C)OC2=O	–
597	> 10	C[C@@H]1/C=C\C(=O)[C@@H](O)[C@@H](O)C/C=C/c2cc(OCCN(C)C)cc(O)c2C(=O)O[C@H]1C	–
515	> 10	C[C@@H]1/C=C\C(=O)[C@@H](O)[C@@H](O)C/C=C/c2cc(O)cc(O)c2C(=O)O[C@H]1C	–
383	> 10	C[C@@H]1/C=C\C(=O)[C@@H](O)[C@@H](O)C/C=C/c2cc(OCC(O)CO)cc(O)c2C(=O)O[C@H]1C (some centres undefined)	–
293	> 10	COc1cc(O)c2c(c1)NC(=O)C[C@H](O)[C@H](O)C(=O)/C=C\[C@@H](C)[C@H](C)OC2=O	–
59	> 10	C[C@@H]1/C=C\C(=O)[C@@H](O)[C@@H](O)C/C=C/c2cc(OCCN3CCOCC3)cc(O)c2C(=O)O[C@H]1C	–
43	> 10	C[C@@H]1/C=C\C(=O)[C@@H](O)[C@@H](O)C/C=C/c2cc(OCCn3ccnn3)cc(O)c2C(=O)O[C@H]1C	–
31	> 10	CC(=O)NCC(=O)COc1cc(O)c2c(c1)/C=C/C[C@H](O)[C@H](O)C(=O)/C=C\[C@@H](C)[C@H](C)OC2=O	–
